Five compounds from article PMC10367051, “Comprehensive Mechanistic View of the Hydrolysis of Oxadiazole-Based Inhibitors by Histone Deacetylase 6 (HDAC6)” (ACS Chemical Biology, 2023) can be followed below.

Common to all, as to assay type: biochemical
Test [1] has as its target T1, HDAC2 (Homo sapiens, UniProt Q92769).
T1 construct: TwinStrep-FLAG-HALO (N, cleaved yes); made in house; host or cells: HEK293/T17
The test can be described thus: Fluorometric HDAC inhibition assay, HDAC2. The following applies: purified human protein; Ac-Gly-Ala-[Lys-Ac]-AMC substrate 10 μM; 15 min preincubation. As to the method: (§1) Large-scale expression of recombinant human HDACs was carried out as described previously.[32],[37] Briefly, HEK293/T17 cells were transiently transfected with expression pMM222 plasmids comprising N-terminally tagged (TwinStrep-FLAG-HALO tag; Figure S1) HDAC genes using linear poly(ethyleneimine) (PEI, Polysciences Inc.). Cells were harvested three days post-transfection, and cell pellets were resuspended in the lysis buffer (100 mM Tris-HCl, 10 mM NaCl, 5 mM KCl, 2 mM MgCl2, and 10% glycerol at pH 8.0). Cells were disrupted by sonication, cell lysates were cleared by centrifugation, and soluble fusion proteins were first purified by Streptactin affinity chromatography (IBA). For all HDACs but HDACs 1, 10, and 11, the N-terminal tag was cleaved off overnight by the addition of TEV protease (10:1 HDAC/TEV ratio). Size-exclusion chromatography on a Superose 6 column (GE Healthcare Bio-Sciences; running buffer 30 mM HEPES, 140 mM NaCl, 10 mM KCl, 3% glycerol, and 0.25 mM TCEP) was used as the final purification step for all HDAC constructs.
(§2) Optimized fluorometric assays were used to determine inhibition constants of studied compounds against individual HDAC isoforms as described previously.[32] Briefly, reactions were performed in the activity buffer comprising 50 mM HEPES, 140 mM NaCl, and 10 mM KCl at pH 7.4 supplemented with 1 mg mL^–1 bovine serum albumin (BSA), 1 mM tris(2-carboxyethyl)phosphine (TCEP), 10 μM substrates, and optimized concentrations of HDACs. The Ac-Gly-Ala-[Lys-Ac]-7-amino-methylcoumarylamide (AMC) substrate was used to profile HDACs 1, 2, 3, and 6; Boc-[Lys-TFA]-7-amino-methylcoumarylamide was used for HDACs 4, 5, 7, 8, and 9 (both substrates: Bachem); fluorescein-labeled N8-acetylspermidine was used for HDAC10;[32] and an internally quenched TNFα-derived peptide derivative was used for HDAC11.[39] Deacetylation reactions were monitored either by high-performance liquid chromatography (HPLC) (HDAC10) or by quantification of released AMC (λex/λem = 365/440 nm) using a CLARIOstar plate reader (BMG Labtech GmbH).

Test [2] concerns the target T2, HDAC4 (Homo sapiens, UniProt P56524).
T2 construct: TwinStrep-FLAG-HALO (N, cleaved yes); made in house; host or cells: HEK293/T17
The test can be described thus: Fluorometric HDAC inhibition assay, HDAC4. The following applies: purified human protein; Boc-[Lys-TFA]-AMC substrate 10 μM; 15 min preincubation. As to the method: as §1, §2

In test [3] the target is T3, HDAC7 (Homo sapiens, UniProt Q8WUI4).
T3 construct: TwinStrep-FLAG-HALO (N, cleaved yes); made in house; host or cells: HEK293/T17
T3 sequence (Q8WUI4 1-952): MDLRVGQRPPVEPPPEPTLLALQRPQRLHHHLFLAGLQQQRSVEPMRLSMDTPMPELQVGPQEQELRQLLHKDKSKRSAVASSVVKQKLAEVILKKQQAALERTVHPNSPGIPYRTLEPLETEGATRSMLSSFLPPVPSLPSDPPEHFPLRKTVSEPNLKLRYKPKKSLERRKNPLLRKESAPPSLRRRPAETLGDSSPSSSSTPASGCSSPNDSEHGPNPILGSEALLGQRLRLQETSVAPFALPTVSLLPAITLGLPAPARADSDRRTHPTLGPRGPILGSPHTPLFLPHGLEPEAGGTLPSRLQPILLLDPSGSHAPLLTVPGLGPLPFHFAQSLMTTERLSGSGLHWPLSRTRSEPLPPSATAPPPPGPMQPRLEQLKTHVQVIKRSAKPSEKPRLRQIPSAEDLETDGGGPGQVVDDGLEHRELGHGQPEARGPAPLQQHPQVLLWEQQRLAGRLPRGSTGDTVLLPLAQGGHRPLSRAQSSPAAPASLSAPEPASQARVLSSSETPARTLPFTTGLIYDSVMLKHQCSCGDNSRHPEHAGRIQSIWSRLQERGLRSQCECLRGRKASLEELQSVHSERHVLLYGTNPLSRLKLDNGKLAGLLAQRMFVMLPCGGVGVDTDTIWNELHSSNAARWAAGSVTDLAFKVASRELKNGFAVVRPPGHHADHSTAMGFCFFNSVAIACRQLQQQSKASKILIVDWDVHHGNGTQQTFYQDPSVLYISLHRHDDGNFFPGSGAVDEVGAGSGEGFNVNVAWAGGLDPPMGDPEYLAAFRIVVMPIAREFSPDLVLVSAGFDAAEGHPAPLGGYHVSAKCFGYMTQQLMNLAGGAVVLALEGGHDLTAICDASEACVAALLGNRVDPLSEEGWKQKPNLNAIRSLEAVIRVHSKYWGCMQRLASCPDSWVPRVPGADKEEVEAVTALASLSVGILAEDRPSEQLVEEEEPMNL
Nature of the test: Fluorometric HDAC inhibition assay, HDAC7. The following applies: purified human protein; Boc-[Lys-TFA]-AMC substrate 10 μM; 15 min preincubation. Here is the method:
as §1, §2

T1 sequence (Q92769 whole entry): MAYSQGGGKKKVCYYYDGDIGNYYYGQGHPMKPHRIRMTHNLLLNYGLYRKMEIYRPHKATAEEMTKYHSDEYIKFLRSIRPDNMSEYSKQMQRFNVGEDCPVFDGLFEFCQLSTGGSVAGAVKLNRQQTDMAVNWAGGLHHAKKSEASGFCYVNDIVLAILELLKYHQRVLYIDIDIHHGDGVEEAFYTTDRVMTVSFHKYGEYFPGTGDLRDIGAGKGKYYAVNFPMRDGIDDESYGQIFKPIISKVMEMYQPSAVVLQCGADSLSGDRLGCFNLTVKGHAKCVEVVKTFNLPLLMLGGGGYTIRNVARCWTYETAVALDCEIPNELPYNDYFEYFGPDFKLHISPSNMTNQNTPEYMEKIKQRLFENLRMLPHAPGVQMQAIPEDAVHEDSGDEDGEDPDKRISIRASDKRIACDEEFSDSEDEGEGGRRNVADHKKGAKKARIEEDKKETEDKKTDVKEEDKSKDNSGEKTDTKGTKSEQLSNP
T2 sequence (P56524 whole entry): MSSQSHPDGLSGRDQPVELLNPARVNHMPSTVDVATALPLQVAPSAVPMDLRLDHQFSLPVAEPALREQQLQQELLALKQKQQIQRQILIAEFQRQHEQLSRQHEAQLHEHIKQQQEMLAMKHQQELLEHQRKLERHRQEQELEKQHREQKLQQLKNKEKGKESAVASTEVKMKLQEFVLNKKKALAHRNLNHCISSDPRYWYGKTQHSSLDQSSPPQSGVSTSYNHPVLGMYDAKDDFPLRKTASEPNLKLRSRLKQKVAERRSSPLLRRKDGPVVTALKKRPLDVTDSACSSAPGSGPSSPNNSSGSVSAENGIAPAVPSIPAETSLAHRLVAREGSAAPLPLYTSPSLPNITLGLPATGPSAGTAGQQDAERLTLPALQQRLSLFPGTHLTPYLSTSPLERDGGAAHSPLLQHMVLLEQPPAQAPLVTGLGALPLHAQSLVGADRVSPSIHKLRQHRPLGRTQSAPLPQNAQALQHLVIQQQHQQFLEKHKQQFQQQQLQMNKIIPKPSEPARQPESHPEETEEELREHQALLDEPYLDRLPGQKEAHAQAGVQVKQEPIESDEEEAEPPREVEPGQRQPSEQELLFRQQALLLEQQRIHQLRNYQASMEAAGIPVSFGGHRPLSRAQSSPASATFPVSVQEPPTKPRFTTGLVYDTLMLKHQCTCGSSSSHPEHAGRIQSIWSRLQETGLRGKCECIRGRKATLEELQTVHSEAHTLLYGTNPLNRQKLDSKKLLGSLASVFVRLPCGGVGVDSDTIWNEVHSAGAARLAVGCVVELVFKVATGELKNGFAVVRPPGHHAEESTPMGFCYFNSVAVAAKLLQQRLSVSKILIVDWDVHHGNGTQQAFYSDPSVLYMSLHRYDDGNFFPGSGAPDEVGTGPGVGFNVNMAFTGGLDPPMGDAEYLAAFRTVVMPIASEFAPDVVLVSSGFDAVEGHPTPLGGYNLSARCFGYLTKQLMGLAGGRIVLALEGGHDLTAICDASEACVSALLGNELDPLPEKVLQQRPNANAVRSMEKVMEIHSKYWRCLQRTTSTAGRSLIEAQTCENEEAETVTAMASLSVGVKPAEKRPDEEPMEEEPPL

The term IC50 denotes the midpoint of a concentration-inhibition curve. A high value points to weaker potency. Turning to `CS(=O)(=O)N(Cc1ccc(C(=O)NN)cn1)c1cccc(Cl)c1` [compound 4], the IC50 in test [1], in test [2] and in test [3] was > 20 µM in each case.

For `CS(=O)(=O)N(Cc1ccc(C(=O)NNC(=O)C(F)(F)F)cn1)c1cccc(Cl)c1` [compound 5], the IC50 in test [1] and in test [2] was > 20 µM throughout.

Turning to `CS(=O)(=O)N(Cc1ccc(C(=O)NNC(=O)C(F)F)cn1)c1cccc(Cl)c1` [compound 6], the concentration for half-maximal inhibition (IC50) in test [2] was > 20 µM.

`CS(=O)(=O)N(Cc1ccc(-c2nnc(C(F)(F)F)o2)cn1)c1cccc(Cl)c1` [compound 7]: the IC50 in test [1] is 17.4 µM; in test [2], > 20 µM; in test [3], > 20 µM.

In the case of `CS(=O)(=O)N(Cc1ccc(-c2nnc(C(F)F)o2)cn1)c1cccc(Cl)c1` [compound 8], the IC50 in test [1], in test [2] and in test [3] was > 20 µM in each case.
